Laboratory results reported in ChEMBL document CHEMBL1201862, “PubChem BioAssay data set” (2004).
Active and inactive are the calls of the source.

What was measured:
NS3 = NS3 (Hepatitis C virus, UniProt A3EZJ3); assay: PubChem AID 2173; design: species or system Hepacivirus hominis
Vero [1] = assay: cells; type: functional, cell-based; settings: Chlorocebus sabaeus
Vero [2] = assay: cells; type: functional; settings: Chlorocebus sabaeus
Paired box protein Pax-8 = Paired box protein Pax-8 (Homo sapiens, UniProt Q06710); assay: inhibitors of PAX8-driven TPO luciferase reporter, dose response, RMG-I cells, cherry-pick (AID 687027); type: functional, cell-based;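 further: luciferase reporter driven by Pax8 target thyroperoxidase promoter measured by SteadyGlo luminescence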
Sequence of Paired box protein Pax-8 (Q06710 whole entry): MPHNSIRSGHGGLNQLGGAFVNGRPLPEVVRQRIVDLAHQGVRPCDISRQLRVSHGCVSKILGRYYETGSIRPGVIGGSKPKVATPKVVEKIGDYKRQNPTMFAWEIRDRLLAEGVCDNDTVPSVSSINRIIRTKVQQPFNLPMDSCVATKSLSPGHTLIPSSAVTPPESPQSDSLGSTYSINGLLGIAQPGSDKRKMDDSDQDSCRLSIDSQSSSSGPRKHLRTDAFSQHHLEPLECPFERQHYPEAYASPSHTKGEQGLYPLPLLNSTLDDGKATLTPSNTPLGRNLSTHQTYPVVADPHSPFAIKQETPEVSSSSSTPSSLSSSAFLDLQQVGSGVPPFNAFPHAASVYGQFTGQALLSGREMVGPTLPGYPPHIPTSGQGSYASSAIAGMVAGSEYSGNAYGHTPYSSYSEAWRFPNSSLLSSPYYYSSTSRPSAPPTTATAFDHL

HEK293 [3] = assay: NOD1 signaling inhibitors, primary screen, cell-based, luminescence, uHTS (AID 1578); type: functional; settings: Homo sapiens
[4] = molecular target: Nucleotide-binding oligomerization domain-containing protein 2 (Homo sapiens, UniProt Q9HC29); assay: NOD2 signaling inhibitors, cell-based, luminescence, uHTS, HEK293 (AID 1566); type: functional
Sequence of Nucleotide-binding oligomerization domain-containing protein 2 (Q9HC29 whole entry, the tested form may be a part): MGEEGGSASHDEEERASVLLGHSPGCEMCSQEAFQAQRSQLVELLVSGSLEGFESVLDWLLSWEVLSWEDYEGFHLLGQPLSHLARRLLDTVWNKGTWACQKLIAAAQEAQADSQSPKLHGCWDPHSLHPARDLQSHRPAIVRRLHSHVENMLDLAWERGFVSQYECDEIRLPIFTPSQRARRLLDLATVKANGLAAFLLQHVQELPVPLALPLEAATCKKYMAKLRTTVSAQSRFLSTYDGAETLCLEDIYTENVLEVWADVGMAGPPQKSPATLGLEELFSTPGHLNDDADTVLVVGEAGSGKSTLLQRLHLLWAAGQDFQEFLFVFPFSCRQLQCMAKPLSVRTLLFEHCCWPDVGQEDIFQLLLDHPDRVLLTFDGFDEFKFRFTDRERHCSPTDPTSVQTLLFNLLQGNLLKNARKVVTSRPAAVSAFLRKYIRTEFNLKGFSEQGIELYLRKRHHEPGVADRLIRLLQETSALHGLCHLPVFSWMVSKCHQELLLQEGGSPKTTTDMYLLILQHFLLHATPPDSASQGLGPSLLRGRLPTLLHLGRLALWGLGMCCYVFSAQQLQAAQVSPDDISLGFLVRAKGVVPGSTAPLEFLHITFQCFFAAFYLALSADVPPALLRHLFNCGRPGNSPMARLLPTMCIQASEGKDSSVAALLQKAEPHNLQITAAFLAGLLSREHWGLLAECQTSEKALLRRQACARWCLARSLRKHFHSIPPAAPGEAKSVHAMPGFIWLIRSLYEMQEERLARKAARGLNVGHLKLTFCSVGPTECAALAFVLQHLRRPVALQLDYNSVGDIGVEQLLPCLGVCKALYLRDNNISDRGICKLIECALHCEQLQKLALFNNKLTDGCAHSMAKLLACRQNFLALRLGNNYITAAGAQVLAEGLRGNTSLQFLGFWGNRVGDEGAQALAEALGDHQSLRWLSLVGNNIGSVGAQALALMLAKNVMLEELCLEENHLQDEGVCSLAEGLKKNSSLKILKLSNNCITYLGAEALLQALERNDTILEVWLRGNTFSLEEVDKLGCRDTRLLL

HEK293 [5] = assay: NOD2 signaling inhibitors in MDP-stimulated cells, cell-based, uHTS, luminescence (AID 2001); type: functional; settings: Homo sapiens
HEK293 [6] = assay: cells; type: functional, cell-based; settings: Homo sapiens
Prothrombin = Prothrombin (Homo sapiens, UniProt P00734); assay: Thrombin 1536 HTS Dose Response Confirmation. [Related pubchem assays: 1046 (Thrombin 1536 HTS; hits were confirmed in this assay)]; type: functional
[7] = system: Streptococcus sp. 'group A'; assay: growth inhibition of control SK(-) GAS strain, dose response, counter-screen for streptokinase expression inhibitor project, luminescence, kanamycin, BacTiterGlo, confirmation (AID 1900); type: functional, organism-based
HEK293 [8] = assay: cells; type: functional, cell-based; settings: Homo sapiens; remark: listed apart in the source
Streptokinase A = molecular target: T1, Streptokinase A (Streptococcus pyogenes serotype M1, UniProt P10520); assay: S. pyogenes streptokinase expression inhibitors, potency, dose response, plasminogen activation absorbance, OD405 (AID 1914); type: functional, Streptococcus pyogenes M1 GAS;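 further: secreted streptokinase activity via plasminogen activation per viability signal from cell pellet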
T1 sequence (P10520 whole entry): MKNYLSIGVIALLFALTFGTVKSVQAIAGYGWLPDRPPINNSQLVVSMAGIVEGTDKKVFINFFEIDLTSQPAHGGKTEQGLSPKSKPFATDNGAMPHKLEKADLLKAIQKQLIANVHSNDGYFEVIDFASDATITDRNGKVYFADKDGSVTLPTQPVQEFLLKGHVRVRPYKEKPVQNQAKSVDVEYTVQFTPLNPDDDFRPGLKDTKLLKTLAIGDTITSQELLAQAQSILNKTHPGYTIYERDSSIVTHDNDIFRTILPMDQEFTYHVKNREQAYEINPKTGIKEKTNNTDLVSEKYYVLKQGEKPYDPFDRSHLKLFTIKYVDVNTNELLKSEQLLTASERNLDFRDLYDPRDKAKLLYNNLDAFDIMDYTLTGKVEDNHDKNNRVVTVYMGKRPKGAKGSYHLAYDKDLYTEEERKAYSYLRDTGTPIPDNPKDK

HEK293 [9] = assay: cells; type: functional, cell-based; settings: Homo sapiens; remark: listed apart in the source
Streptococcus = assay: Group A Streptococcus viability loss, dose response, counter-screen for streptokinase expression inhibitor project, luminescence, BacTiterGlo (AID 1915); type: functional, organism-based;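 further: potency for reduction of bacterial viability or growth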
Bcl-2-related protein A1 = molecular target: T2, Bcl-2-related protein A1 (Mus musculus, UniProt Q07440); type: functional;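 further: confirmatory dose–response counterscreen on Bfl-1, used to check hits from a UBC13 polyubiquitin inhibitor campaign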
T2 sequence (Q07440 whole entry): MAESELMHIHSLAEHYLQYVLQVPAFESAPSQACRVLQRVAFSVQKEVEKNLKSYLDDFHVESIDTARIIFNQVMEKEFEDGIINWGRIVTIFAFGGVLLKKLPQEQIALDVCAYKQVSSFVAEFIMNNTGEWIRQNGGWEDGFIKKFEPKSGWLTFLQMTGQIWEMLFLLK

[10] = molecular target: T3, Ubiquitin-conjugating enzyme E2 N (Homo sapiens, UniProt P61088); type: functional;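 further: Dose-response confirmation in a TR-FRET assay detecting UBC13-driven polyubiquitin chain formation, inhibition measured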
T3 sequence (P61088 whole entry): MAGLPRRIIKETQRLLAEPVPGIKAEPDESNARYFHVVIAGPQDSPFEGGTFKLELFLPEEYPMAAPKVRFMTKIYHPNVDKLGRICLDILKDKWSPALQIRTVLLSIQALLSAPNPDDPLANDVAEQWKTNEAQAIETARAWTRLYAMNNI

[11] = molecular target: Peroxisome proliferator-activated receptor gamma/Nuclear receptor coactivator 2 (Homo sapiens, UniProt P37231); type: functional;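 further: agonist potency for raising coactivator recruitment to the receptor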
[12] = molecular target: Peroxisome proliferator-activated receptor gamma/Nuclear receptor coactivator 1 (Homo sapiens, UniProt P37231); type: functional;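 further: agonist potency as compounds enhance coactivator SRC-1 recruitment to PPARgamma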
[13] = molecular target: Peroxisome proliferator-activated receptor gamma/Nuclear receptor coactivator 3 (Homo sapiens, UniProt P37231); type: functional;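 further: agonist potency for raising coactivator recruitment to the receptor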
Sequence of Peroxisome proliferator-activated receptor gamma/Nuclear receptor coactivator 3 (P37231 whole entry): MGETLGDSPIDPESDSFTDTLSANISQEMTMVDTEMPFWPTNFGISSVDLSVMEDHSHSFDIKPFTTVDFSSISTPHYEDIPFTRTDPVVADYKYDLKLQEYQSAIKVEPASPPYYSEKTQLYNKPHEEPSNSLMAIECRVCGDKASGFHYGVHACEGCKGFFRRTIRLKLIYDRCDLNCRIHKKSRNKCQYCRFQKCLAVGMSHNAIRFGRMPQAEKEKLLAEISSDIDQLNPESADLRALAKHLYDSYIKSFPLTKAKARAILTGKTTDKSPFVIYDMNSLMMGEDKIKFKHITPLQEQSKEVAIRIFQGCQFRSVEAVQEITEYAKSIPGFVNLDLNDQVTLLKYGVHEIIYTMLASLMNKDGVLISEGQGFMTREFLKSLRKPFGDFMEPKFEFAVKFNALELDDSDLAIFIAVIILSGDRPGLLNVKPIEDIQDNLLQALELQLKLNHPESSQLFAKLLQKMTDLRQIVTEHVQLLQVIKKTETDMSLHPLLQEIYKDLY
Sequence of Peroxisome proliferator-activated receptor gamma/Nuclear receptor coactivator 3 (Q9Y6Q9 whole entry, further chain): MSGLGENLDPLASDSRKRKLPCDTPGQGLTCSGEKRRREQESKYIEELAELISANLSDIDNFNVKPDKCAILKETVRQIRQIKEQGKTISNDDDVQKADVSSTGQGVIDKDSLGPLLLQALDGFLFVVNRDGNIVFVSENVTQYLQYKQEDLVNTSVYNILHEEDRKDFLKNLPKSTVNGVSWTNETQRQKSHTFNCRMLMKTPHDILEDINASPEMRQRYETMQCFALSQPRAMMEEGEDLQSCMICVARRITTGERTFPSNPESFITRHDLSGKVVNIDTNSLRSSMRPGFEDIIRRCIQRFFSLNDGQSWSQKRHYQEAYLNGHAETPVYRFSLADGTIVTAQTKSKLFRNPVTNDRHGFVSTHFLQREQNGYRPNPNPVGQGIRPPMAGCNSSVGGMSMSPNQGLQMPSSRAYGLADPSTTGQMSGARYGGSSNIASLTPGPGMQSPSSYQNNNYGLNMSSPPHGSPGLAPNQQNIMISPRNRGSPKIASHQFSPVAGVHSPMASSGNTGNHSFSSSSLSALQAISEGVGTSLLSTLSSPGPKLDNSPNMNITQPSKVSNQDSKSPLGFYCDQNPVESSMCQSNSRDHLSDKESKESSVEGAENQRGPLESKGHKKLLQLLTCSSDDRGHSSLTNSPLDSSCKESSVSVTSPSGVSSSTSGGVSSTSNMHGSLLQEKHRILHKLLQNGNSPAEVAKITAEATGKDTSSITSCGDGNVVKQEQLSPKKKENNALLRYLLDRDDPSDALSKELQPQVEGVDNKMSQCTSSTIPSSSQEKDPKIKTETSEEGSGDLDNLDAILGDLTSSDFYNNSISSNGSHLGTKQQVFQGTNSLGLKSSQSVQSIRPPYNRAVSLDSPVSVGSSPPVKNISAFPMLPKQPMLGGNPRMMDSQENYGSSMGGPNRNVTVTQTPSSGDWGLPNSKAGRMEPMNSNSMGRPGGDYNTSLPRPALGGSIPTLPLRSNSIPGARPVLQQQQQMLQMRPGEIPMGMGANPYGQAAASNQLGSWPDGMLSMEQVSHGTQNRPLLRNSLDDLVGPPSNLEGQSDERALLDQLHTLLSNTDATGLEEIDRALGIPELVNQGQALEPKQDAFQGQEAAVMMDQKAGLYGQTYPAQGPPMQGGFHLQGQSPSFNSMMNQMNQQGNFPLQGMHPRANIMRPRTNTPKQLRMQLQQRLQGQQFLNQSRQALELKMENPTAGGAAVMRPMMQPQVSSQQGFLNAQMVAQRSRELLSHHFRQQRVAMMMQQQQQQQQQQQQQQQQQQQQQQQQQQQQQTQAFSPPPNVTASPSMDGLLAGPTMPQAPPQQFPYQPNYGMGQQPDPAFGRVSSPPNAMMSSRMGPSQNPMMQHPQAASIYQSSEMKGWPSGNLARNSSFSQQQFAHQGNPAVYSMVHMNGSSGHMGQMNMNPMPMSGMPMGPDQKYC

[14] = Luminescence Cell-Based Dose Retest to Confirm Inhibitors of Cancer Stem Cells. [Related pubchem assays (depositor defined):AID2717, AID2721]; type: functional; settings: Homo sapiens
[15] = cytotoxicity in HMLE control line with eGFP shRNA, dose response, counter-screen for HMLE_sh_ECad selective toxicity project, cell-based, HMLE_sh_eGFP, luminescence (AID 463074); type: functional, Homo sapiens;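 further: HMLE human mammary epithelial cells expressing control shRNA against eGFP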
X-box-binding protein 1 = molecular target: T4, X-box-binding protein 1 (Homo sapiens, UniProt P17861); type: functional, Cricetulus griseus;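 further: confirmatory dose-response counter-screen serving a CHOP assay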
T4 sequence (P17861 whole entry): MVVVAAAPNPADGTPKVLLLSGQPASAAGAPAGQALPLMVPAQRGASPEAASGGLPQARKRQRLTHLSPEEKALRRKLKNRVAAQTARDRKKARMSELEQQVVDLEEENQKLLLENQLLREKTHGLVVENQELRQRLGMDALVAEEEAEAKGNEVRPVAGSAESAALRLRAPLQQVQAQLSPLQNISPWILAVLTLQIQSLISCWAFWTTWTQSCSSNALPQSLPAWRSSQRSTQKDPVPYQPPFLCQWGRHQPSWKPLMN

fMet-Leu-Phe receptor = molecular target: T5, fMet-Leu-Phe receptor (Homo sapiens, UniProt P21462); assay: FPR ligands, dose response (AID 519); type: functional
T5 sequence (P21462 whole entry): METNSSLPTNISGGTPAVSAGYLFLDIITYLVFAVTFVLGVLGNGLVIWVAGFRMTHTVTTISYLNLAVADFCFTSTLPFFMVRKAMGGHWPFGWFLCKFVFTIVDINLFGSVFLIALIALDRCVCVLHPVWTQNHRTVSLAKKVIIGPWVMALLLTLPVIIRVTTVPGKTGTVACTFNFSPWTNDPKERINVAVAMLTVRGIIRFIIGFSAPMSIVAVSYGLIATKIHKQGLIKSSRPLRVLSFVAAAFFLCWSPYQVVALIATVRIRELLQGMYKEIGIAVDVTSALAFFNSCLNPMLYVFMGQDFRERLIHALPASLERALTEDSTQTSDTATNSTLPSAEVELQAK

[16] = NIH-3T3 fibroblast cytotoxicity, dose response, cytotoxicity control, cell-based, fluorescence, Alamar Blue, secondary assay (AID 2327); type: functional;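 further: NIH-3T3 mouse fibroblasts cultured with fluconazole at 8 µg/mL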
[17] = C. albicans growth with fluconazole, confirmation, fluorescence, retest (AID 2467); type: functional, cell-based
[18] = inhibitors of intracellular T. cruzi replication, confirmation, NIH3T3 host cells, beta-gal luminescence (AID 2044); type: functional, cell-based;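 further: intracellular parasites grown in NIH/3T3 mouse fibroblasts as host cells; luminescent beta-galactosidase reporter signal from transgenic T. cruzi replicating inside host cells; inhibitors lower the luminescence signal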
[19] = cytotoxicity toward NIH3T3 fibroblasts, dose response, counter-screen, cell-based, ATP luminescence, mouse fibroblasts (AID 2010); type: functional;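 further: cells exposed to compound for about 90 hours before reading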
[20] = molecular target: DNA dC->dU-editing enzyme APOBEC-3A (Homo sapiens, UniProt P31941); assay: Dose Response confirmation of small molecule APOBEC3A DNA Deaminase Inhibitors via a fluorescence-based single-stranded DNA deaminase assay. [Related pubchem assays (depositor defined):AID493011, AID493024]; type: functional
[21] = molecular target: DNA dC->dU-editing enzyme APOBEC-3G (Homo sapiens, UniProt Q9HC16); type: functional;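 further: Dose-response counterscreen measuring inhibition of APOBEC3G DNA deaminase activity, run while confirming APOBEC3A inhibitors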
Cytochrome P450 2C19 = Cytochrome P450 2C19 (Homo sapiens, UniProt P33261); assay: Cytochrome panel assay with activity outcomes. Panel member name: p450-cyp2c19 Compounds with AC50 equal or less than 10 uM are considered active; type: functional; settings: read-out: AC50
Cytochrome P450 3A4 = Cytochrome P450 3A4 (Homo sapiens, UniProt P08684);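 further: CYP3A4 tested as one member of a cytochrome P450 panel screen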
Sequence of Cytochrome P450 3A4 (P08684 whole entry): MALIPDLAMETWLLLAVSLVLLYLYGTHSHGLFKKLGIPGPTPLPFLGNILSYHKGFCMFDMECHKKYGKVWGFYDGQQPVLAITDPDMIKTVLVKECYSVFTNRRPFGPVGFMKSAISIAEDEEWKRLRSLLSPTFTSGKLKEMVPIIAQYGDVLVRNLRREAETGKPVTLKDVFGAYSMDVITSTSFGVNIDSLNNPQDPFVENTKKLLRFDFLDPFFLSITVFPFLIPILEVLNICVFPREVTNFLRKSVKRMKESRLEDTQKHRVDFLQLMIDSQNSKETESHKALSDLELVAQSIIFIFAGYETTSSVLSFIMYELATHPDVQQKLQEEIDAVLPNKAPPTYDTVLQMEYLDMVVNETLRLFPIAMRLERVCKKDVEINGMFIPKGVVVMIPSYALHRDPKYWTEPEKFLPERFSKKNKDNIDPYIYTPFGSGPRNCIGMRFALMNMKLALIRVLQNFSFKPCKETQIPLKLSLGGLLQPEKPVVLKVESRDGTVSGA

[22] = molecular target: T6, E3 ubiquitin-protein ligase XIAP (Homo sapiens, UniProt P98170); assay: Counter Screen using XIAP-Bir3 for Chemical Antagonists of Bir1/2 domains of IAP-family anti-apoptotic proteins. [Related pubchem assays (depositor defined):AID1018, AID1449, AID1514, AID1638, AID1749, AID1750, AID488957, AID488963]
T6 sequence (P98170 whole entry): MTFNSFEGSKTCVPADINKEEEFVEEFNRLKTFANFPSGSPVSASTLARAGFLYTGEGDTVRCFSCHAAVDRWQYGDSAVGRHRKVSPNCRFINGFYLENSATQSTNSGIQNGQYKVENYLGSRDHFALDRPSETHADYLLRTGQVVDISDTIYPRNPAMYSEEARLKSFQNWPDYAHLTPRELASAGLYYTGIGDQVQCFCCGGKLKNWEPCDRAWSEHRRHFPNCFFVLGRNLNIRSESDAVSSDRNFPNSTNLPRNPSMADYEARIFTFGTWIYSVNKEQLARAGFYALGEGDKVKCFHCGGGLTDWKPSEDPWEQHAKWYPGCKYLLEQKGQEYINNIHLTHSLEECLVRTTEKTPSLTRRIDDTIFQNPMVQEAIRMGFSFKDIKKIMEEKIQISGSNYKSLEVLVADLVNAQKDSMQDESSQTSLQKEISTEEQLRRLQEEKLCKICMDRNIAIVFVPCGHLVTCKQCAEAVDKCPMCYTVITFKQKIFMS

[23] = molecular target: T6, E3 ubiquitin-protein ligase XIAP; assay: XIAP antagonists, biochemical, IAP family, fluorescence polarization (AID 1018); type: functional
HeLa = assay: HeLa cell cytotoxicity, dose response, cytotoxicity control, 24 h, cherry-picked samples (AID 504726); type: functional, cell-based; settings: Homo sapiens;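 further: potency for cytotoxicity as loss of luminescence signal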
[24] = molecular target: Alkaline phosphatase, placental type (Homo sapiens, UniProt P05187); assay: PLAP enzyme inhibitors, confirmation, biochemical, luminescence (AID 1512); type: functional
Sequence of Alkaline phosphatase, placental type (P05187 whole entry): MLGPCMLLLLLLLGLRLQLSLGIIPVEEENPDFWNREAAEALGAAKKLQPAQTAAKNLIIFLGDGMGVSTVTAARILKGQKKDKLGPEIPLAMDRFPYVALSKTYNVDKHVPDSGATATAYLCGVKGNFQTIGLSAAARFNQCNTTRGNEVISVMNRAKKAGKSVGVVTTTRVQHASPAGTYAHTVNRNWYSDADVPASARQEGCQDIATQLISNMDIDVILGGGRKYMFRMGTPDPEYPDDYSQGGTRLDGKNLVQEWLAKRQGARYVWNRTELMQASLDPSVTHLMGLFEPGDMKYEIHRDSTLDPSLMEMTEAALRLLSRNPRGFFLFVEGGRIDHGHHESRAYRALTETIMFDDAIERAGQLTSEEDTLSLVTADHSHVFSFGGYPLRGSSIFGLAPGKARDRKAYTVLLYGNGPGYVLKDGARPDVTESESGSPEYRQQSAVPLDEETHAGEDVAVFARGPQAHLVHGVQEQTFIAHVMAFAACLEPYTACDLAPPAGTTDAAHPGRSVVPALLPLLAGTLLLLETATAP

[25] = molecular target: T7, Alkaline phosphatase, tissue-nonspecific isozyme (Homo sapiens, UniProt P05186); assay: human TNAP enzyme inhibitors, SAR follow-up, biochemical, luminescent, dose response (AID 1056)
T7 sequence (P05186 whole entry): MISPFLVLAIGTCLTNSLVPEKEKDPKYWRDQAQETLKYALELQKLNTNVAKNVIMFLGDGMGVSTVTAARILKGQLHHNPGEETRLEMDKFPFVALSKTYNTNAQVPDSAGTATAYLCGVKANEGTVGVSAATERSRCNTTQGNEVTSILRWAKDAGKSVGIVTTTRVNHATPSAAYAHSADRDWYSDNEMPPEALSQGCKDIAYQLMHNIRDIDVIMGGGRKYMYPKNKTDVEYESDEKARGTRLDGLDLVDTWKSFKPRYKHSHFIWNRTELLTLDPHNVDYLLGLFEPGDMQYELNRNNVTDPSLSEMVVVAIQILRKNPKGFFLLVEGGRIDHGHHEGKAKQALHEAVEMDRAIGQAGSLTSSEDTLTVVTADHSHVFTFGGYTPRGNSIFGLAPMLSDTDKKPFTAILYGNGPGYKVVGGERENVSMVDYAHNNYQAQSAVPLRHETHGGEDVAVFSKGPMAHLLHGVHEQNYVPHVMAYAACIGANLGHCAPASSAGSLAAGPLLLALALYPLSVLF

CNc1ccc(Br)cc(C(=O)/C=C/c2cc(OC)ccc2OC)c1=O
IC50 (NS3): 11.3 µM (not active) | IC50 (Vero [1]): 7.29 µM (active) | CC50 (Vero [2]): 23.1 µM (active) | AC50 (Paired box protein Pax-8): 7.83 µM (active)

Cc1nc(SCC(=O)N2CCc3ccccc3C2)c2c(C)c(C)sc2n1
EC50 (HEK293 [3]): 6.12 µM (active) | EC50 [4]: 9.64 µM (active) | IC50 (HEK293 [5]): 9.12 µM (inactive) | IC50 (HEK293 [6]): > 20 µM (inactive) | IC50 (Prothrombin): > 50 µM (not active)

CCCCc1nc(N2CCN(C(=O)c3ccco3)CC2)c(C#N)c2c1CCCC2
EC50 (HEK293 [3]): 10.1 µM (active) | EC50 [7]: 7.4 µM (active) | IC50 (HEK293 [8]): 11.9 µM (active) | EC50 (Streptokinase A): 8.54 µM (active) | IC50 (HEK293 [9]): 15.6 µM (active) | EC50 [4]: 7.59 µM (active) | IC50 (HEK293 [5]): 12.2 µM (inactive) | IC50 (HEK293 [6]): > 20 µM (inactive) | EC50 (Streptococcus): 14.4 µM (active)

Cc1ccc(N(C(=O)c2snc(C(N)=O)c2N)C(C(=O)NCC2CCCO2)c2c[nH]c3ccccc23)cc1 (configuration not stated)
IC50 (Bcl-2-related protein A1): > 20 µM (inactive) | IC50 [10]: 12.1 µM (active)

COc1ccc(-c2nc(-c3ccc(NC(=O)c4ccc(Br)o4)cc3)no2)cc1OC
EC50 [11]: 49.2 µM (not active) | EC50 [12]: > 79.4 µM (not active) | EC50 [13]: > 79.4 µM (not active) | AC50 [14]: 2.21 µM (active) | AC50 [15]: 22.8 µM (active) | Absolute IC50 (XBP1) (X-box-binding protein 1): 10 µM | Ki (fMet-Leu-Phe receptor): > 66.7 µM (inactive)

CN(/C=C/C1=[N+](C)c2ccccc2C1(C)C)c1ccccc1
EC50 [16]: > 160 µM (inactive) | EC50 [17]: > 38 µM (not active) | EC50 [18]: 0.335 µM (active) | EC50 [19]: > 60 µM (inconclusive) | IC50 [20]: 1.67 µM (active) | IC50 [21]: 2.31 µM (active) | AC50 (Cytochrome P450 2C19): 0.00708 µM (inconclusive) | AC50 (Cytochrome P450 3A4): 31.6 µM (inconclusive)

Cc1ccc(C)c(N2CCN(C(=O)C34CC5CC(C3)CC(n3nnc(C)n3)(C5)C4)CC2)c1
EC50 (HEK293 [3]): 7.6 µM (active) | IC50 (HEK293 [8]): 6.27 µM (active) | IC50 (HEK293 [9]): 13.1 µM (active) | EC50 [4]: 5.6 µM (active) | IC50 (HEK293 [5]): 4.61 µM (active) | IC50 (HEK293 [6]): > 20 µM (inactive)

c1ccc(CCc2nc(-c3ccc(-n4cccc4)cc3)no2)cc1
IC50 [22]: > 100 µM (inactive) | IC50 [23]: > 100 µM (not active)

COC(=O)c1ccc(/C=C/C(=O)c2ccc(OC)cc2)cc1
IC50 [22]: > 100 µM (inactive) | IC50 [23]: > 100 µM (not active)

Cn1c(=O)c2c(nc(SCC(=O)NCc3ccc4c(c3)OCO4)n2Cc2ccc(Cl)cc2)n(C)c1=O
AC50 (HeLa): 64.6 µM (active)

Cc1cc(C)nc(SCC(=O)c2ccc(Cl)cc2Cl)n1
IC50 [24]: > 100 µM (inactive) | IC50 [25]: > 100 µM (inactive)

Cc1ccc(-c2nnc(SCC(=O)c3ccc(O)c(O)c3)n2C)cc1
IC50 [24]: 11.7 µM (active) | IC50 [25]: > 100 µM (inactive)

Cc1cc(=O)[nH]c(-n2[nH]c(C)cc2=O)n1
IC50 [24]: > 100 µM (inactive)

COc1cc(/C=N/NC(=O)Nc2ccccc2)ccc1OCCOc1ccccc1C
Absolute IC50 (XBP1) (X-box-binding protein 1): 10 µM
